Biological target: T1, RproOR1•RproOrco (Rhodnius prolixus, UniProt T1H977)
T1 sequence (T1H977 1-409): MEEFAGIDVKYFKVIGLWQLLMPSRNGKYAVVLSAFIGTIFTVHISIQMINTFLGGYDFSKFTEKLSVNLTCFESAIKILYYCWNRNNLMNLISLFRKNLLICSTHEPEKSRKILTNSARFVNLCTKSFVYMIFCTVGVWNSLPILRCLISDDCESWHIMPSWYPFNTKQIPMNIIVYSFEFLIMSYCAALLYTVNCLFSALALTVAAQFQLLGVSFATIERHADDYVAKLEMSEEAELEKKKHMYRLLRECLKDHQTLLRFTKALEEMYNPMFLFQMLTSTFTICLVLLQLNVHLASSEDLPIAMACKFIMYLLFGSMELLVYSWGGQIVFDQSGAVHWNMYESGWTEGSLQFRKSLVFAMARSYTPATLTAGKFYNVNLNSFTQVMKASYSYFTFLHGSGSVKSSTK
Assay: two-electrode voltage clamp, Xenopus oocytes
Type: cell-based
Conditions: agonist; -70 mV; coexpressed with RproOrco

SMILES	two-electrode voltage clamp, Xenopus oocytes
CC/C=C\CCOC(C)=O [(Z)-3-hexenyl acetate]	moderate responses to 3-methyl-1-butanol, methyl butyrate, (Z)-3-hexenyl acetate
CCCCC=O [pentanal]	moderate responses to 3-methyl-1-butanol, methyl butyrate, (Z)-3-hexenyl acetate, pentanal

From PMC6278923 (Insect biochemistry and molecular biology, 2018)
